Laboratory results: patent US9580400B2, “Cannabinergic nitrate esters and related analogs” (Northeastern University, priority 2013, dated 2017)

Columns and labels:
human GPR55 receptor = target: T1, human GPR55 receptor (Homo sapiens, UniProt Q9Y2T6); test: β-arrestin2 translocation assay, GPR55, U2OS cells; type: cell-based
T1 construct: human GPR55 receptor modified with human vasopressin V2 receptor tail [GPR55(E)]; fused on or other part: C-terminal tail of the human vasopressin V2 receptor (AVPR2), added to strengthen beta-arrestin recruitment; HA tag; Beta-arrestin 2-GFP is co-expressed as the read-out
Method: Test compounds were screened in U2OS cells permanently expressing β-arrestin 2-GFP and human GPR55 receptor modified with human vasopressin V2 receptor tail [GPR55(E)].
β-arrestin2 translocation: For both agonist and antagonist assays, the U2OS cells permanently transfected with β-arrestin 2-GFP and human GPR55(E) were used to trace β-arrestin translocation upon compound treatment. U2OS cells permanently expressing HA-GPR55E and βarr2-GFP were plated into 96 or 384 glass bottomed well plates in clear MEM. For the antagonist assay, compounds in DMSO (final concentration <1%) were added to cells 15 min prior to LPI (agonist) addition and the plates were placed in a 5% 37 degree CO2 incubator (LPI was used at 6 μM). For agonist evaluation only the compound of interest is placed on the wells. Following 40 minute incubation, the cells are fixed by adding paraformaldehyde to 4%. Image acquisition is performed using the Cellomics Arrayscan VTI High Content (HC) cell based imaging system and a ×40 lens. Image analysis is done by using the Batchmode computer software evaluating wavelet information which reflects the number and intensity of fluorescent aggregation (procedures performed at Duke University and adopted from http://www.ncbi.nlm.nih.gov/books/NBK66153/and J. Biol. Chem. 2009; 284(43):29817-27 herein incorporated by reference in its entirety). FIG. 15 describes the biochemical assay for compound 78 wherein the β-arrestin assessment of GPR55 activation is shown.

rCB1 = target: T2, rCB1 (Rattus norvegicus, UniProt P20272); test: rCB1 competition-equilibrium binding using [3H]CP-55,940, rat brain membranes; conditions: Ki calculated from IC50, read-out: rCB1 affinity data
T2 construct: tissue Pel-Freeze Biologicals; host or cells: rat brain membranes
Method: Frozen rat brains (CB1 source) are obtained from Pel-Freeze Biologicals (Rogers, A K) and stored at −80° C. until use. Membranes are prepared according to the method described in Brain Res 1981, 226, (1-2), 107-18 and adapted as previously reported in J Med Chem 1994, 37, (23), 3867-70 and Life Sci 1995, 56, (23-24), 1957-62; each herein incorporated by reference in its entirety.
(§1) The compounds are tested for their ability to bind to CB1 and CB2 receptors using rat brain or HEK293 cell membranes expressing hCB2 and mCB2 membrane preparations, respectively, as described in J Med Chem 1999, 42, (4), 769-776, J Med Chem 1994, 37, (23), 3867-70 and Life Sci 1995, 56, (23-24), 1957-62 (each herein incorporated by reference in its entirety) via competition-equilibrium binding using [^3H]CP-55,940. The results are analyzed using nonlinear regression to determine the actual IC50 of the ligand (Prizm by GraphPad Software, Inc.) and the Ki values are calculated from the IC50 as described in Biochemical Pharmacology 1973, 22, (23), 3099-3108; herein incorporated by reference in its entirety.

hCB2 = target: T3, hCB2 (Homo sapiens, UniProt P34972); test: hCB2 competition-equilibrium binding using [3H]CP-55,940, HEK293 cell membranes; conditions: HEK293 cell membranes expressing hCB2; Ki calculated from IC50; read-out: hCB2 affinity data
T3 construct: expressed in transfected cells; host or cells: HEK293
Method: HEK293 cells expressing hCB1, hCB2 or mCB2 receptor are used for membrane preparations according to the method described in J Neurochem 1999, 72, (5), 2032-8, herein incorporated by reference in its entirety. The resulting pellet is resuspended in 10 mM Tris-chloride, pH 7.4 with 5 mM MgCl2 and 2 mM EDTA (TME), and stored at −80° C. for no longer than two months. Protein content is assayed by using the Bio-Rad DC protein assay according to the manufacturer's protocol.
as §1

[1] = antagonist assay, compound added 15 min prior to LPI (6 μM), U2OS cells with β-arrestin 2-GFP and GPR55(E)

T1 sequence (Q9Y2T6 1-292 limits assumed): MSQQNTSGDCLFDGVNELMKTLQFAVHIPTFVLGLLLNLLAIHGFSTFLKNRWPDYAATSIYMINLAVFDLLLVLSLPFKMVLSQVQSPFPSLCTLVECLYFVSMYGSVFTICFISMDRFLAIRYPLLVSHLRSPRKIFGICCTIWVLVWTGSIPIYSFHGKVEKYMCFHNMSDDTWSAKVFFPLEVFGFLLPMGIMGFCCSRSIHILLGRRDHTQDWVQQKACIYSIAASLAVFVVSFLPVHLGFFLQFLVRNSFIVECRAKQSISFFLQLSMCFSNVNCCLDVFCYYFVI
T3 sequence (P34972 whole entry): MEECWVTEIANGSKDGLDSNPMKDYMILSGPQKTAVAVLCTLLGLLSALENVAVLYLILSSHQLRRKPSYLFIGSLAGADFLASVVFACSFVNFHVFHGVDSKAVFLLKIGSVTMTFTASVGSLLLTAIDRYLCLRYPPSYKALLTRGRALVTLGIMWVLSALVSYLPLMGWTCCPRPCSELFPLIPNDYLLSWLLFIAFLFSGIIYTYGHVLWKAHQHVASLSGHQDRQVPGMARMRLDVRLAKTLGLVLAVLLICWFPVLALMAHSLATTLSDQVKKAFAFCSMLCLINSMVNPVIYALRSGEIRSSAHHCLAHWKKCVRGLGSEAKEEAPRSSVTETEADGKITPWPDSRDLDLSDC
T2 sequence (P20272 whole entry): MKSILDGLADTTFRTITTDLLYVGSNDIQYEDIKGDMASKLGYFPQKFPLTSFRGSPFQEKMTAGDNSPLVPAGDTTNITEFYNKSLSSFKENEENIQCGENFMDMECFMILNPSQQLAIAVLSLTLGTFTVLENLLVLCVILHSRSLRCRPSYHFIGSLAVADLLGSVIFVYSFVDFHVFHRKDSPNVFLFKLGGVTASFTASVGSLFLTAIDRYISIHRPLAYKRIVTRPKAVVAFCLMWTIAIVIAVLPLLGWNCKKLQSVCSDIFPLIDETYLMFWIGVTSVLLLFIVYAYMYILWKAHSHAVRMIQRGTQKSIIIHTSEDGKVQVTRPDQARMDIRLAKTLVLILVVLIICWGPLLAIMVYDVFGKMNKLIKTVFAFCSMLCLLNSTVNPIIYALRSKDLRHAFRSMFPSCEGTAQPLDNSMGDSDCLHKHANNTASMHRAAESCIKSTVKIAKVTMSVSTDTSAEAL

Row | Molecule | GPR55 EC50 (human GPR55 receptor; [1]) | Ki (rCB1) | Ki (hCB2) | further results
1 | C=C(C)[C@@H]1CCC(C)=C[C@H]1c1c(O)cc(O)cc1CCCCC [abn-cannabidiol, abnormal cannabidiol] | none | – | – | –
2 | CCCCCc1cc(O)c2c(c1)OC(C)(C)[C@@H]1CCC(C)=C[C@@H]21 [Δ^9-THC, Δ^9-tetrahydrocannabinol] | none | – | – | –
3 | C=C(C)[C@@H]1CCC(C)=C[C@H]1c1c(O)cc(CCCCC)cc1O [cannabidiol] | none | – | – | –
4 | L-α-lysophosphatidylinositol [LPI] | – | – | – | EC50 (human GPR55 receptor; LPI (agonist) line of the antagonist assay table): 6 µM
5 | C=C(C)[C@@H]1CCC(C)=C[C@H]1c1c(O)cc(C(C)(C)CCCCO[N+](=O)[O-])cc1O [compound 78, 5-((1′R,2′R)-2,6-dihydroxy-5′-methyl-2′-(prop-1-en-2-yl)-1′,2′,3′,4′-tetrahydro-[1,1′-biphenyl]-4-yl)-5-methylhexyl nitrate] | – | 0.06 µM | 0.035 µM | EC50 (human GPR55 receptor; [1]): 2 to 4 µM
6 | CC1=CC[C@@H]2[C@@H](C1)c1c(O)cc(C(C)(C)CCCCO[N+](=O)[O-])cc1OC2(C)C [compound 1, 5-((6aR,1aR)-1-hydroxy-6,6,9-trimethyl-6a,7,10,10a-tetrahydro-6H-benzo[c]chromen-3-yl)-5-methylhexyl nitrate] | – | 0.0001 µM | 0.001 µM | –
